Test results published in patent US20220040255A1, “CHEMOTHERAPEUTIC REMODELING OF THE GUT MICROBIOME” (THE SCRIPPS RESEARCH INSTITUTE, priority 2018, published 2022).
Where a SMILES comes first, the peptide text is derived from it. [ ]: non-standard residue; d: D form.

Tested on: gut microbiota transcriptome
Experiment: bacterial RNA-seq of feces (microbiota transcriptome)
Assay type: in vivo, LDLr−/− mice
Protocol: Bacterial RNA-seq sample preparation and sequencing. Total bacterial RNA from feces samples was isolated with ZR Soil/Fecal RNA MicroPrep (Zymo research) following the manufacturer's instructions. Briefly, the sample was suspended in RNA lysis buffer and lysed by the mixer (Retsch). The supernatant was transferred to a RNA-binding column and washed several times with RNA wash buffer. In-column DNaseI digestion at 25° C. for 15 min was performed to eliminate DNA contamination in the sample. The presence of genomic DNA contamination was assessed by PCR with universal 16S rRNA gene primers. Before RNA-seq library preparation, rRNA was removed from 2 μg of total bacterial RNA with Ribo-Zero Bacteria kit (Illumina). 100 ng of purified RNA was used for RNA-seq library preparation as described previously^56. The cDNA was synthesized by reverse transcription with SuperScript III (Life technologies) and second-strand synthesis (New England Biolabs). The sequencing library was generated from purified cDNA with Nextera XT DNA library preparation kit (Illumina) and amplified by PCR. Cycling conditions were 72° C. for 3 min, 95° C. for 30 s, followed by 16 cycles of 95° C. for 10 s, 55° C. for 30 s, and 72° C. for 30 s. A condition of 72° C. for 5 min was used for the final elongation step. Libraries with different indexes were pooled and single-end sequencing (75 bp) was performed on an Illumina NextSeq at the Scripps Research Institute next generation sequencing core.
Functional analysis of bacterial RNA-seq data. We used BWA (version 0.7.12) read alignment program and a custom-built bacterial reference database, which contains 4,700 bacterial genomes from NCBI NR sequence database, to map RNA-seq reads. The reads aligned to individual bacterial genes were counted using HTSeq count (version 0.6.0) and the counts were further normalized based on size factors estimated using the median of the ratios of observed counts method as described previously (Anders et al., Genome Biol. 11, R106, 2010). The proteins predicted by RNA-seq read alignment were annotated with DIAMOND (version 0.8.26) using the NCBI nonredundant (NCBI-nr) database and the default setting (BLASTX e value <10^−3, bit score >50). For query genes with multiple matches, the annotated reference gene with the lowest e value was chosen. The functional analysis was performed by MEGAN (version 5.11.3) and KEGG analyzer was used to determine read counts in different metabolic pathways from each group. The aggregate expression level changes for sequences within a given function were normalized before the comparison between each group.

With `CC(C)C[C@@H]1NC(=O)[C@@H](Cc2c[nH]c3ccccc23)NC(=O)[C@H](CCCNC(=N)N)NC(=O)[C@@H](CCC(=O)O)NC(=O)[C@H](CCC(N)=O)NC(=O)[C@@H](CCC(=O)O)NC(=O)[C@H](CCCNC(=N)N)NC(=O)[C@@H](Cc2c[nH]c3ccccc23)NC1=O` [c[wLwReQeR]] (cyclo([dW]L[dW]R[dE]Q[dE]R)) the “overall gene expression from Bacteroidetes” value (feces, 2-week treatment) was “increased”, the “overall gene expression from Firmicutes” value (feces, 2-week treatment) was “reduced” and the “acetoacetate-CoA transferase levels compared to vehicle” value (microbiota transcriptome) was “higher”. The “butyryl-CoA dehydrogenase levels compared to vehicle” value (microbiota transcriptome) was “lower”.
